Entries after “also recorded” stand apart in the source; their conditions may differ. Read-outs that look alike come from different tables or passages of the source.
Legend:
senescent ARPE-1 cells = assay: toxicity towards senescent ARPE-1 cells (GIEMSA staining, microscopy); assay type: cell-based, human; conditions: 10 µM, 48 hours; senescence induced by 200nM aphidicolin for three weeks; Figure 1
Method: (§1) hTERT RPE-1 human retinal epithelial cell line was obtained from ATTC. Cells were grown in DMEM medium (Sigma Aldrich) supplemented with 10% fetal bovine serum (FBS) and antibiotics (penicillin-streptomycin). MRC-5 human lung fibroblast cell line was obtained from ATTC. Cells were grown in DMEM (Sigma Aldrich) supplemented with 10% FBS and antibiotics (penicillin-streptomycin).
(§2) In human ARPE-1 human epithelial cells, senescence response - manifested by loss of proliferation, typical morphological changes and Senescence Associated Beta-galactosidase positivity - was induced by exposition to replication stress for prolonged time period. The induction involved 200nM aphidicolin continual treatment for three weeks. The senescent cells have been exposed to various doses of MCOPPB dissolved in water for 48 hours, the dose range spanned 100 nM - 50 µM. The number of surviving cells was evaluated immediately after the treatment either using GIMSA staining and microscopy-based evaluation of surviving cells and compared to parental exponentially growing ARPE-1 cells, which were exposed to MCOPPB as well. Control samples of senescent and parental cells, without MCOPPB treatment, were assessed, too. […]

[1] = test system: parental (normal healthy) ARPE-1 cells; assay: toxicity towards parental ARPE-1 cells (GIEMSA staining, microscopy); assay type: cell-based, human; conditions: 10 µM, 48 hours; Figure 1
Method: as §1, §2

senescent MRC5 cells = assay: toxicity towards senescent MRC5 cells (GIEMSA staining, microscopy); assay type: cell-based, human
Method: as §1
In human MRC-5 fibroblasts cells, senescence response - manifested by loss of proliferation, typical morphological changes and Senescence Associated Beta-galactosidase positivity - was induced by exposition to gamma radiation. The induction involved a single irradiation, total dose 15 Gy using Xstrahl RS 225 M RTG device set to 200KV 15mA (dose 3.8Gy/min). […] The number of surviving cells was evaluated immediately after the treatment either using GIMSA staining and microscopy-based evaluation of surviving cells and compared to parental exponentially growing MRC-5 cells.

[2] = tolerance of long term application in vivo; design: species or system mice (C57B1/6 strain); conditions: five weeks, regime 5 + 2, female mice aged 42 weeks
Method: Female mice (C57B1/6 strain) at the age of 42 weeks were treated by intraperitoneal application of MCOPPB (10 mg/kg and 20 mg/kg) dissolved in phosphate buffer or by the buffer alone (vehicle) for five weeks in the regime 5 + 2 (5 days with the treatment, two days without) and followed for another two weeks. The weight and another physiological factors reflecting overall fitness were monitored.

[3] = test system: senescent cells (p16 positive cells); assay: elimination of senescent cells in p16 luciferase reporter mouse; assay type: in vivo
Method: Reporter GMO mouse with integrated luciferase reporter under p16 promoter allows monitoring of aging on the molecular level by an increase of luminescence signal due to the accumulation of senescent cells (this mouse model is described in details in: Cell. 2013 Jan 17;152(1-2):340-51). Application of senolytics targets the p16 positive cells and leads to decrease in the luminescent signal. Naturally aged reporter mice were treated by the MCOPPB compound and luminescence signal level was measured over time.

mu opioid receptor = mu opioid receptor (Homo sapiens, UniProt P35372); conditions: cited from earlier work
mu opioid receptor, sequence (P35372 whole entry, species assumed): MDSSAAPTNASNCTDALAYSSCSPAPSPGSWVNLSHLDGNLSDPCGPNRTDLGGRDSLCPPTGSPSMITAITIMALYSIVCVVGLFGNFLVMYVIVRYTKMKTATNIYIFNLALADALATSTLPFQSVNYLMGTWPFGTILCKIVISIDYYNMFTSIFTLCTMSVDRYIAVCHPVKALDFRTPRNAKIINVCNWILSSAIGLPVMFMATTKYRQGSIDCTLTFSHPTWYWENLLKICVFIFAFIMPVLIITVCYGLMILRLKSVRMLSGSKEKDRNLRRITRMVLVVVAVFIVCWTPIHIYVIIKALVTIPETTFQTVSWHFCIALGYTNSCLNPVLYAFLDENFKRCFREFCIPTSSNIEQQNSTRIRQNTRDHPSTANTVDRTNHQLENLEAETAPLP

kappa opioid receptor = kappa opioid receptor (Homo sapiens, UniProt P41145); conditions: cited from earlier work
kappa opioid receptor, sequence (P41145 whole entry): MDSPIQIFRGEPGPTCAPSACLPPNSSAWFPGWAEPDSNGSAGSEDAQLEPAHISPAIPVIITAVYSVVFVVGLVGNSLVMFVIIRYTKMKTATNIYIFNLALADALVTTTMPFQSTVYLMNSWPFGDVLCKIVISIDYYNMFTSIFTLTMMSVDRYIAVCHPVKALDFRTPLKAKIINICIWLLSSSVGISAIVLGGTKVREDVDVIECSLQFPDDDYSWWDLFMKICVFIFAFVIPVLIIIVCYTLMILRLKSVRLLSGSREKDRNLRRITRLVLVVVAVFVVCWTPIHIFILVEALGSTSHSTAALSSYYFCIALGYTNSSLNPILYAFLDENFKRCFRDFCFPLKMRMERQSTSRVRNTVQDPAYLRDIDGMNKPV

delta opioid receptor = delta opioid receptor (Homo sapiens, UniProt P41143); conditions: cited from earlier work
delta opioid receptor, sequence (P41143 whole entry): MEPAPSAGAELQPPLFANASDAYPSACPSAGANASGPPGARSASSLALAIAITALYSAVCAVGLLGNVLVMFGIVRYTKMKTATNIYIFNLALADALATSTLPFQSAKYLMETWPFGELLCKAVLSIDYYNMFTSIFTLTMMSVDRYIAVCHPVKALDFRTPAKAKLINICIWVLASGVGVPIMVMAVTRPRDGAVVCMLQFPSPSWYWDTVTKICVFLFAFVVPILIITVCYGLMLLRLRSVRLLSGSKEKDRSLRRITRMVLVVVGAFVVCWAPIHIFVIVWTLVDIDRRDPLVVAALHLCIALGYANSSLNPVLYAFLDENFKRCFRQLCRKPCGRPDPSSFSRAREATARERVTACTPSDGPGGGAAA

[4] = biological target: T1, NOP receptor in the mouse brain (Mus musculus, UniProt P35377); conditions: 10 mg/kg, p.o.; ex vivo; cited from earlier work
T1 construct: from tissue; host or cells: mouse brain
T1 sequence (P35377 whole entry): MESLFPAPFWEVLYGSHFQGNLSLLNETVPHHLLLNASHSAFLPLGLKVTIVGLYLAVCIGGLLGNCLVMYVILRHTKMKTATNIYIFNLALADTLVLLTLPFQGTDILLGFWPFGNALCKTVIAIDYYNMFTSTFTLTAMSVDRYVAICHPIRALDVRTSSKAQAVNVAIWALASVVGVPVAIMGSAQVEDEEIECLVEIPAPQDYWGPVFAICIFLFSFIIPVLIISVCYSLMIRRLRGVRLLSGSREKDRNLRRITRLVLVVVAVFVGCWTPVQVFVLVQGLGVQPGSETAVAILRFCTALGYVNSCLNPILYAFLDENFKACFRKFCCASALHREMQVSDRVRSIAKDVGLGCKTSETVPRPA

[5] = p.o., cited from earlier work
[6] = animal studies, cited from earlier work
[7] = oral dose of 10 mg/kg; cited from earlier work
[8] = cited from earlier work
[9] = dose not stated; cited from earlier work

CC1(N2CCC(n3c([C@@H]4CCCNC4)nc4ccccc43)CC2)CCCCCCC1 [MCOPPB, 1-[1-(1-methylcyclooctyl)-4-piperidinyl]-2-[(3R)-3-piperidinyl]-1H-benzimidazole]
toxicity towards the senescent cells (senescent ARPE-1 cells): cell deterioration and cell loss; also recorded: selective toxicity
adverse effects on the parental cells [1]: no adverse effects
toxicity towards the senescent cells (senescent MRC5 cells; 5 µM, 48 hours, senescence induced by gamma radiation 15 Gy, Figure 3): selective toxicity
toxicity towards the senescent cells (senescent MRC5 cells; 10µM for 48 hours (legend of Figure 3)): cell deterioration and cell loss
tolerance by the animals ([2]; 10 mg/kg intraperitoneal): well tolerated
tolerance by the animals ([2]; 20 mg/kg intraperitoneal): well tolerated
whole body luminescent signals ([3]; 12-16 months old p16 reporter mice, treated for two weeks, versus vehicle, Figure 6): decrease of the luminescence signal
whole body luminescent signal ([3]; 12 month old p16 reporter mouse, after three weeks of treatment, Figure 5): rapid decrease of the signal
luminescence signal ([3]; naturally aged reporter mice, compared to controls, figures 5 and 6): decrease in the luminescence signal
affinity for the mu opioid receptor (mu opioid receptor): moderate affinity
affinity for the kappa opioid receptor (kappa opioid receptor): weak affinity
binding at the delta opioid receptor (delta opioid receptor): negligible binding
signaling through the NOP receptor in the mouse brain [4]: inhibited signaling
anxiolytic-like effects ([5]; 10 mg/kg): elicited anxiolytic-like effects
anxiolytic effect after repeated administration ([5]; 10 mg/kg, repeated administration for 5 days): still effective as an anxiolytic agent
shape of response curve [5]: bell-shaped response curve
sedative side effects ([6]; appear only at much higher doses than the effective anxiolytic dose range): only slight sedative side effects
anxiolytic effects [6]: potent anxiolytic effects
inhibition of memory or motor function [6]: no inhibition of memory or motor function
locomotor activity [7]: did not affect
memory ([8]; oral dose of 10 mg/kg): did not affect

CN1C(=O)CN=C(c2ccccc2)c2cc(Cl)ccc21 [diazepam, reference compound]
anxiolytic-like effects ([5]; 3 mg/kg): elicited anxiolytic-like effects
memory ([8]; dose not stated): caused memory deficits
ethanol-induced hypnosis [9]: enhanced ethanol-induced hypnosis

Reference: patent EP3552605A1 (priority 2018, dated 2019)
